Measured values as given in a melting point compilation (Tetko et al.; mined from patent text by program, amines drawn as free bases though some values may be those of a salt).

Row | melting point | SMILES
1 | 211 to 213 °C | c1ccc(-c2ccc3c(c2)CCN(Cc2c[nH]c4ncccc24)C3)cc1
2 | 250 °C | CCNCC(=O)Nc1cccc2c1C(=O)c1c-2n[nH]c1-c1ccc(OC)cc1
3 | 171 to 172 °C | Cc1cc(N2N=CCNC2=O)cc(Cl)c1C(=O)c1ccc(Cl)cc1
4 | 213 to 214 °C | Cc1cccnc1C(CO)COc1ccc(CC2SC(=N)NC2=O)cc1 (configuration not stated)
5 | 157 to 158 °C | CCOC(=O)C1=C(NC(=O)Nc2cc(C(=O)OC(C)C)c(Br)cc2Br)CCC1
6 | 167 to 168 °C | Cc1cccc(COc2cccc(OCc3ccc4ccccc4n3)c2)c1C(=O)O
7 | 132 to 133 °C | COC(=O)c1c(N)cccc1S(=O)(=O)NC(C)(C)C
8 | 280 to 290 °C | Cc1[nH]c(=O)c(C#N)cc1-c1ccccc1
9 | 187 to 188 °C | Cn1nc2c(N)nc3c(c2c1CCNC(=O)N1CCOCC1)CCCC3
10 | 115 to 116 °C | O=C(CNC(=O)OCc1ccccc1)Nc1ccccc1C(=O)c1cccs1
11 | 150 to 152 °C | CC1C=CC(Oc2ccc(C(=O)O)o2)=C2N=C3CCCCC3=C21 (configuration not stated)
12 | 147 to 149 °C | CC(=O)O[C@H]1c2cc(F)ccc2Cc2ccccc2[C@H]1C[C@@H]1COC(C)(C)O1
13 | 109 °C | COc1ccccc1CN[C@H]1CCCN(CCCCCc2ccccc2)[C@H]1c1ccccc1 (relative stereo)
14 | 177 to 178 °C | CN(NC(=O)c1c(Cl)cccc1Cl)S(=O)(=O)c1ccccc1
15 | 114 to 115 °C | Nc1cccc(C(=O)c2ccc(Cl)cc2)c1
16 | 147 to 150 °C | O=C(O)Cc1cc(C(=O)c2ccc(Br)cc2)sc1-c1ccccc1
17 | 148 to 150 °C | C#Cc1c(C(C)C)nc(-c2ccccc2)n1-c1ccc(F)cc1
18 | 80 to 85 °C | COc1ccc(CSc2ccc([N+](=O)[O-])cc2CNCCc2ccccc2)cc1
19 | 251 °C | NC(=O)c1[nH]c2cccnc2c1Sc1ccccc1
20 | 190 to 195 °C | O=C(O)Cc1c(C(=O)O)c2cc(Oc3cccc(Cl)c3)ccc2n1-c1ccc(OC(F)(F)F)cc1
21 | 87 to 91 °C | Cc1cc2c(s1)Nc1ccccc1N=C2N1CCN(C)[C@@H](CCc2ccccc2)C1
22 | 293 to 295 °C | O=C(O)c1ccc2nc(/C=C/c3ccccc3)cc(=O)n2c1
23 | 75 to 77 °C | CC[C@@H](CO)[C@](O)(Cn1cncn1)c1ccc(F)cc1F

Row | melting point | SMILES
24 | 72 to 74 °C | CC(=O)SCCC(=O)CCC(=O)O
25 | 185 to 187 °C | O=C(NNc1ccc(NC(=S)Nc2ccc(NNC(=O)c3ccccc3)cc2)cc1)c1ccccc1
26 | < 60 °C | CC(=O)n1nc(C)c(Oc2cc(Cl)cc(Cl)c2)c1C
27 | 249 to 252 °C | C[C@@H]1Cc2c(N3CCN(C)CC3)c(F)cc3c(=O)c(C(=O)O)cn1c23
28 | 78 to 81 °C | C=CCSc1cc(C(=O)O)cc(S(N)(=O)=O)c1-c1ccccc1
29 | 174 to 176 °C | Cc1c(Cl)cc(C(=O)C=[N+]=[N-])cc1S(N)(=O)=O
30 | 263 to 264 °C | CN(C)CCOc1ccc2[nH]c(C(=O)N3CC(CCl)c4c3cc([N+](=O)[O-])c3cc([N+](=O)[O-])ccc43)cc2c1 (configuration not stated)
31 | 183 to 184 °C | CC(S)=C(C#N)C(=O)Nc1ccc(C(F)(F)F)cc1
32 | 132 °C | O=C(N=c1sc2cc(OC(F)(F)F)ccc2n1CCN1CCN(c2ccccn2)CC1)C(F)(F)F
33 | 82 °C | CC1=CC(=O)CC(c2cccc(Cl)c2)N1C (configuration not stated)
34 | 66 °C | CCOC(=O)C1=COc2ccc(OC(C)=O)cc2O1
35 | 242 °C | Cn1c2c(c3cccc(F)c31)C(=O)NCC2
36 | 52 to 53 °C | CCOC(=O)C(Oc1cccc2[nH]ccc12)C(=O)OCC
37 | 126 to 127 °C | CC(=O)Oc1cc(C(=O)O)cc([N+](=O)[O-])c1OC(C)=O
38 | 264 °C | Cn1nc(-c2cnc(N)nc2-c2ccc(Cl)cc2)ccc1=O
39 | 85 to 87 °C | O=S(=O)(c1ccccc1)n1ccc2c(OCCCl)cccc21
40 | > 300 °C | Cc1ccc(-n2cnc3nncc-3c2N)cc1
41 | 204 to 206 °C | Cn1c(C(=O)O)c(Oc2ccc(Cl)cc2N)c2ccccc21
42 | 231 to 232 °C | O=C(Cn1c(-c2ccc(Cl)cc2)nc2cccnc21)NC1CC1
43 | 84 to 85 °C | O=C(O)C(=O)c1ccc(SCCOC2CCCCCCC2)cc1
44 | 142 to 143 °C | COC(=O)c1nn(C2CCCCO2)cc1NC(=O)c1ccc(C)nc1 (configuration not stated)
45 | 110 to 112 °C | CC(C)(CCl)C(=O)N(O)Cc1ccccc1F
46 | 97 to 98.5 °C | CC(C)(C)OC(=O)NCCc1cccc(OCCC2Oc3ccccc3N(Cc3ccc(Cl)cc3)C2=O)c1 (configuration not stated)

Row | melting point | SMILES
47 | 244 to 246 °C | COc1cc(-c2cnc3[nH]cc(C(=O)C4(C)CCCC4)c3n2)cc(OC)c1OC
48 | 75 to 76 °C | COC(=O)CC(NC(=O)CC1CCCCC1)C(C)=O (configuration not stated)
49 | 163 to 165 °C | Fc1ccc(CN2CCC(Nc3ccc(C(F)(F)F)nn3)CC2)cc1
50 | 203 °C | Clc1cccc(C(c2ccnc3ccccc23)n2cnnc2)c1 (configuration not stated)
51 | 222 to 225 °C | COc1cccc2c1C(=O)c1c(cc3c(c1O)CCC(C(C)=O)C3)C2=O (configuration not stated)
52 | 142 °C | CC[C@H](CC(=O)NC(=O)OC)Nc1ccc(C(F)(F)F)cc1
53 | 214 to 217 °C | O=C(O)c1cc(-n2c(-c3ccc(O)cc3)cc3c2CCCC3)ccc1O
54 | 56 to 57 °C | C=Cc1ccncc1C#N
55 | 115 °C | C=C(C)n1c(=O)n(CCCCl)c2ccccc21
56 | 153 to 156 °C | CNC(=O)c1cc(NC(=O)c2ccc(C)c(Nc3nccc(N4C=CC=NC4)n3)c2)cc(N2CCOCC2)c1
57 | 99 to 101 °C | CCOC(=O)/C(C#N)=C/c1c(OC)cccc1OC
58 | 145 to 149 °C | CC(=O)C1=CCC2C3CCC4CC5OC5CC4(C)C3CCC12C (configuration not stated)
59 | 138 to 141 °C | O=S(=O)(NCc1ccncc1)c1ccc(-c2ccccc2Cl)cc1
60 | 151 to 152 °C | O=c1cc(C(F)(F)F)ccn1-c1c(Cl)cc(CO)cc1Cl
61 | 155 to 157 °C | CC(=O)Oc1ccc2c(c1)COC(C(Cl)(Cl)Cl)N2 (configuration not stated)
62 | 101 to 102 °C | C#CCn1cc(F)c(SC)nc1=O
63 | 82 to 83 °C | CC(C)Oc1c(C(N)=O)oc2ccccc12
64 | 151 to 152 °C | CCCn1nc(C(=O)O)cc1CC(C)(C)NC(=O)OC(C)(C)C
65 | 75 °C | COC(=O)[C@H](O[Si](C)(C)C)[C@@H](O[Si](C)(C)C)C(=O)OC
66 | 85 to 86 °C | CNC(=O)n1nc(Oc2ncc(C(F)(F)F)cc2Cl)cc1C
67 | 152 to 153 °C | CCc1cc(/C=C/C(N)=O)ccc1Cl
68 | 168 to 170 °C | NC(=O)N1c2ccccc2C=C(Br)c2ccccc21
69 | 67 to 69 °C | COC(=O)c1cccn2ccnc12

Row | melting point | SMILES
70 | 188 to 192 °C | Cc1ccc(C(=O)O)c(Nc2cc(C)nn2C)c1
71 | 200 to 210 °C | COc1ccc(Sc2nc(C)n(Cc3cc4c(cc3Cl)OCO4)c2C(=O)O)cc1
72 | 43 to 45 °C | CON=C(C#CCN1CCOCC1)C(=O)OC
73 | 181 to 182 °C | CC(Oc1ccc(-n2cnc3cc(C(F)(F)F)ccc32)cc1)C(=O)O (configuration not stated)
74 | 161 to 163 °C | COC(=O)CS(=O)C(C)c1ccc(-c2ccccc2)c(F)c1 (configuration not stated)
75 | 140 to 142 °C | Cc1cc(C2C(=O)Oc3c2cc(C(C)(C)C)cc3C(C)(C)C)cc(C)c1OC(=O)C(C)(C)C (configuration not stated)
76 | 275 to 276 °C | Cc1ccc(-c2[nH]c(C)nc2C(=O)Nc2nccs2)cc1
77 | 211 to 214 °C | CC1=C(C(=O)O)C(c2ccc(F)c(Br)c2)C2=C(CCC2=O)N1 (configuration not stated)
78 | 230 to 235 °C | O=C(O)c1cn(CCc2cccc(Cl)c2)c2cc(C3CC3)nn2c1=O
79 | 225 to 227 °C | COc1cc(Nc2c(C#N)cnc3cc(-c4cnc(C=O)n4C)sc23)c(Cl)cc1Cl
80 | 168 to 170 °C | O=S(=O)(Nc1cc(C(F)(F)F)ccc1-c1cc(Oc2ccc3cccnc3c2)ncn1)c1ccccc1
81 | 93 to 94 °C | CCOC(=O)c1cn(-c2ccc(OC)cc2)cn1
82 | > 300 °C | O=C(Nc1cccc2c1C(=O)c1c-2n[nH]c1-c1ccc(C(=O)NC2CCCNC2)s1)NN1CCOCC1 (configuration not stated)
83 | 139 to 150 °C | COc1ccccc1N1CCN(CCCCNc2cc(Cl)nnc2OC)CC1
84 | 95 to 97 °C | OC(COc1ccc2nncn2n1)CN1CCN(C(c2ccccc2)c2ccccc2)CC1 (configuration not stated)
85 | 312 to 314 °C | c1ccc(Nc2nc(NC3CCC3)c3[nH]cnc3n2)cc1
86 | 114 to 117 °C | Cc1c(-c2ccccc2)sc2ncc(C(=O)C(C)C)c(O)c12
87 | 279 °C | Cc1ccc(C(=O)C2=C(O)C(=O)N(c3ccc(C)nn3)C2c2ccc(C(C)C)cc2)cc1 (configuration not stated)
88 | 148 to 149 °C | NNC1=NOCc2ccc(Cl)cc21
89 | 114 to 116 °C | Cc1ccc(S(=O)(=O)OCC2COc3ccc4[nH]c(C(F)(F)F)nc4c3O2)cc1 (configuration not stated)
90 | 97 to 100 °C | O=C(O)c1cc(OCCCCCCc2cccc(OCc3ccccc3)c2OCc2ccccc2)ccc1O
91 | 80 to 81 °C | COc1ccc(CSc2cnccc2C#N)cc1

Row | SMILES | melting point
92 | COC(=O)C1(c2ccccc2)CCN(CCNC(=O)N2C(=O)COCC2c2ccc(F)c(F)c2)CC1 (configuration not stated) | 113 to 117 °C
93 | O=[N+]([O-])c1ccc(Oc2cccc3c(Oc4ccc([N+](=O)[O-])c([N+](=O)[O-])c4)cccc23)cc1[N+](=O)[O-] | 224 to 228 °C
94 | C[C@]12CC(=O)[C@H]3[C@@H](CCC4=CC(=O)CC[C@@H]43)[C@@H]1CCC2=O | 204 to 209 °C
95 | COc1ccc(C#Cc2ccc(OC3CN4CCC3CC4)nn2)cc1 (configuration not stated) | 163 to 165 °C
96 | C=CCN1CCc2c([nH]c3ccccc23)C(C(=O)OC)C1 (configuration not stated) | 105 to 108 °C
97 | O=C(OC1CCCC1)c1ncn2c1[C@@H]1CCN1C(=O)c1c(I)cccc1-2 | 184 to 185 °C
98 | CCON=CNC(=O)c1ccc(C2=NOC(c3cc(Cl)cc(Cl)c3)(C(F)(F)F)C2)cc1C (configuration not stated) | 143 to 146 °C
99 | CN1Cc2c(C#CC3(O)CCC3)ncn2-c2ccc(F)cc2C1=O | 177 to 179 °C
100 | CCCCCCCCCCCCc1cc2c(s1)NC(=O)CN=C2c1ccccc1Cl | 119 to 121 °C
101 | Cc1ccc(C2CCN(CCc3c(C)[nH]c4ccccc34)CC2)cc1 | 192 to 194 °C
102 | CC(C)(C)OC(=O)NCC1CN[C@@H]2CCO[C@H]12 (relative stereo) | 59 to 67 °C
